Test results as given in publication PMC3022373 (Journal of medicinal chemistry, 2010).

Biological target: T1, hiCE (Homo sapiens, UniProt O00748)
T1 sequence (O00748 27-559): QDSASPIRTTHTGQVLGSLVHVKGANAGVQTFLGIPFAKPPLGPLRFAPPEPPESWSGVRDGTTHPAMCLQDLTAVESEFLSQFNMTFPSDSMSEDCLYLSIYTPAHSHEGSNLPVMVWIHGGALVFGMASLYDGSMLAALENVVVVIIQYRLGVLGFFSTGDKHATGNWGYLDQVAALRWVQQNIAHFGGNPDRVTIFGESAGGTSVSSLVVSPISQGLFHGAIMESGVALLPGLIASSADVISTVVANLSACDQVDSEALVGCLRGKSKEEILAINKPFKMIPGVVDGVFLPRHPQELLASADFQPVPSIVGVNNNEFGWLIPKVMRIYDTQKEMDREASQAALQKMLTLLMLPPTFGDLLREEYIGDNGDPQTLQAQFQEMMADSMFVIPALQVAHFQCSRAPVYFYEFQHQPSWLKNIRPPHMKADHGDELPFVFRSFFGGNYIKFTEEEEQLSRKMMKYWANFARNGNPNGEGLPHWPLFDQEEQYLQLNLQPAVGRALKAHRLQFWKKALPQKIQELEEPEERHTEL
Assay type: biochemical

SMILES	selectivity in favor of hiCE inhibition versus hCE1
O=C(C(=O)c1ccccn1)c1cccc(NC(=O)c2ccc(Cl)cc2Cl)c1 [15d]	≥ 100 fold
O=C(Nc1cccc(C(=O)C(=O)c2ccccn2)c1)c1ccc(C(F)(F)F)cc1 [15f]	≥ 100 fold
